Reference: patent US9890117B2, “Benzamide compounds and related methods of use” (Northwestern University, priority 2012, dated 2018)

Tests used:
SIRT2 = molecular target: T1, SIRT2 (Homo sapiens, UniProt Q8IXJ6); test: Fluor-de-Lys biochemical sirtuin deacetylation assay, SIRT2; conditions: 10 μM
T1 construct: recombinant active enzymes SIRT1, SIRT2, and the catalytically active fragment of SIRT3
T1 sequence (Q8IXJ6 1-389): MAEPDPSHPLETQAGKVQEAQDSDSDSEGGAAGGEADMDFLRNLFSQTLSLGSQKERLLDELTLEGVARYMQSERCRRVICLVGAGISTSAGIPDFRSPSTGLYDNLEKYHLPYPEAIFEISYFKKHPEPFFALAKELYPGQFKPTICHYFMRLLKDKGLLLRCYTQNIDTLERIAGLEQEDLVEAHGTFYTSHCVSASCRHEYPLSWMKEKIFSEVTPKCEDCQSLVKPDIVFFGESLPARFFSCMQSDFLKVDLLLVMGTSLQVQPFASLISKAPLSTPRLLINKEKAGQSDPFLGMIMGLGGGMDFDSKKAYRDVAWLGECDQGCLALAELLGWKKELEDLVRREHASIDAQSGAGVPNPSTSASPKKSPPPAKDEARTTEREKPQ

Compound	melting point	inhibition at 10 µM (SIRT2) [%]
CN(c1ccc(Br)cc1)S(=O)(=O)c1cccc(C(=O)Nc2ccc(F)cc2F)c1 [Compound 203u, 3-(N-(4-bromophenyl)-N-methylsulfamoyl)-N-(2,4-difluorophenyl)benzamide]	119 to 120 °C	22
CN(c1ccc(Cl)cc1)S(=O)(=O)c1cccc(C(=O)Nc2ccc(Br)cc2F)c1 [Compound 203w, N-(4-bromo-2-fluorophenyl)-3-(N-(4-chlorophenyl)-N-methylsulfamoyl)benzamide]	126 to 127 °C	31
CN(c1ccc(Cl)cc1)S(=O)(=O)c1cccc(C(=O)Nc2ccc(Cl)cc2C#N)c1 [Compound 203x, N-(4-chloro-2-cyanophenyl)-3-(N-(4-chlorophenyl)-N-methylsulfamoyl)benzamide]	157 to 158 °C	15
CN(c1ccc(Cl)cc1)S(=O)(=O)c1cccc(NC(=O)c2ccc(Br)cc2)c1 [Compound 207a, 4-bromo-N-(3-(N-(4-chlorophenyl)-N-methylsulfamoyl)phenyl)benzamide]	187 to 189 °C	28
CN(c1ccc(S(C)(=O)=O)cc1)S(=O)(=O)c1cccc(NC(=O)c2ccc(Br)cc2)c1 [Compound 207b, 4-bromo-N-(3-(N-methyl-N-(4-(methylsulfonyl)phenyl)sulfamoyl)phenyl)benzamide]	216 to 218 °C	57
CN(c1ccc(S(C)(=O)=O)cc1)S(=O)(=O)c1cccc(NC(=O)c2ccc([S+](C)[O-])cc2)c1 (centres unmarked) [Compound 207c, N-(3-(N-methyl-N-(4-(methylsulfonyl)phenyl)sulfamoyl)phenyl)-4-(methylsulfinyl)benzamide]	184 to 186 °C	47
CN(c1ccc(S(C)(=O)=O)cc1)S(=O)(=O)c1cccc(NC(=O)c2ccc(S(C)(=O)=O)cc2)c1 [Compound 207d, N-(3-(N-methyl-N-(4-(methylsulfonyl)phenyl)sulfamoyl)phenyl)-4-(methylsulfonyl)benzamide]	213 to 215 °C (dec.)	26
CSc1ccc(CSc2cccc(C(=O)Nc3ccc(C#N)cn3)c2)cc1 [Compound 211a, N-(5-cyanopyridin-2-yl)-3-((4-(methylthio)benzyl)thio)benzamide]	161 to 162 °C	63
CSc1ccc(CSc2cccc(C(=O)Nc3ccc(Cl)cn3)c2)cc1 [Compound 211b, N-(5-chloropyridin-2-yl)-3-((4-(methylthio)benzyl)thio)benzamide]	159 to 161 °C	42
COc1ccc(CSc2cccc(C(=O)Nc3ccc(C#N)cc3)c2)cc1 [Compound 211c, N-(4-cyanophenyl)-3-((4-methoxybenzyl)thio)benzamide]	167 to 169 °C	69
COc1ccc(CSc2cccc(C(=O)Nc3ccc(C#N)cn3)c2)cc1 [Compound 211d, N-(5-cyanopyridin-2-yl)-3-((4-methoxybenzyl)thio)benzamide]	163 to 164 °C	46
N#Cc1ccc(NC(=O)c2ccnc(SCc3ccc(F)cc3)c2)cc1 [Compound 211e, N-(4-cyanophenyl)-2-((4-fluorobenzyl)thio)isonicotinamide]	160 to 162 °C	74
COc1ccc(CSc2cc(C(=O)Nc3ccc(C#N)cc3)ccn2)cc1 [Compound 211f, N-(4-cyanophenyl)-2-((4-methoxybenzyl)thio)isonicotinamide]	201 to 203 °C	68
N#Cc1ccc(NC(=O)c2cccc(SCc3ccc(F)cc3)c2)cc1 [Compound 211g, N-(4-cyanophenyl)-3-((4-fluorobenzyl)thio)benzamide]	148 to 150 °C	59

Further lines, results first:

melting point	inhibition at 10 µM (SIRT2) [%]	Compound
149 to 150 °C	56	N#Cc1ccc(NC(=O)c2cccc(OCc3cccc(F)c3F)c2)cc1 [Compound 216Aa, N-(4-cyanophenyl)-3-((2,3-difluorobenzyl)oxy)benzamide]
181 to 183 °C	84	CC(=O)c1ccc(C(C)Oc2cncc(C(=O)Nc3ccc(C#N)cc3)c2)cc1 (centres unmarked) [Compound 216Ab, 5-(1-(4-acetylphenyl)ethoxy)-N-(4-cyanophenyl)nicotinamide]
79 to 81 °C	93	CC(=O)c1ccc(C(C)Oc2cccc(C(=O)Nc3ccc(C#N)cc3)c2)cc1 (centres unmarked) [Compound 216Ac, 3-(1-(4-acetylphenyl)ethoxy)-N-(4-cyanophenyl)benzamide]
142 to 143 °C	58	N#Cc1ccc(NC(=O)c2cccc(OCc3cccc(F)c3)c2)cc1 [Compound 216Ad, N-(4-cyanophenyl)-3-((3-fluorobenzyl)oxy)benzamide]
185 to 187 °C	57	N#Cc1ccc(NC(=O)c2cccc(OCc3cc(F)cc(F)c3)c2)cc1 [Compound 216Ae, N-(4-cyanophenyl)-3-((3,5-difluorobenzyl)oxy)benzamide]
179 to 181 °C	12	CC(O)c1ccc(C(C)Oc2cncc(C(=O)Nc3ccc(C#N)cc3)c2)cc1 (centres unmarked) [Compound 216Af, N-(4-cyanophenyl)-5-(1-(4-(1-hydroxyethyl)phenyl)ethoxy)nicotinamide]
147 to 148 °C	60	CSc1ccc(COc2cccc(C(=O)Nc3ccc(C#N)cc3)c2)cc1 [Compound 216a, N-(4-cyanophenyl)-3-((4-(methylthio)benzyl)oxy)benzamide]
146 to 147 °C	22	CSc1ccc(COc2cccc(C(=O)Nc3ccc(C#N)cn3)c2)cc1 [Compound 216b, N-(5-cyanopyridin-2-yl)-3-((4-(methylthio)benzyl)oxy)benzamide]
147 to 148 °C	40	COc1ccc(COc2cccc(C(=O)Nc3ccc(C#N)cc3)c2)cc1 [Compound 216c, N-(4-cyanophenyl)-3-((4-methoxybenzyl)oxy)benzamide]
132 to 134 °C	8	COc1ccc(COc2cccc(C(=O)Nc3ccc(C#N)cn3)c2)cc1 [Compound 216d, N-(5-cyanopyridin-2-yl)-3-((4-methoxybenzyl)oxy)benzamide]
174 to 175 °C	32	C[S+]([O-])c1ccc(COc2cccc(C(=O)Nc3ccc(C#N)cc3)c2)cc1 (centres unmarked) [Compound 216e]
173 to 174 °C	36	COc1ccc(COc2cccc(C(=O)Nc3ccc(S(C)(=O)=O)cc3)c2)cc1 [Compound 216f, 3-((4-methoxybenzyl)oxy)-N-(4-(methylsulfonyl)phenyl)benzamide]
149 to 150 °C	64	N#Cc1ccc(NC(=O)c2cccc(OCc3ccc(F)cc3)c2)cc1 [Compound 216g, N-(4-cyanophenyl)-3-((4-fluorobenzyl)oxy)benzamide]
135 to 136 °C	50	COc1ccc(COc2cccc(C(=O)Nc3ccc([S+](C)[O-])cc3)c2)cc1 (centres unmarked) [Compound 216h, 3-((4-methoxybenzyl)oxy)-N-(4-(methylsulfinyl)phenyl)benzamide]
170 to 171 °C	15	N#Cc1ccc(NC(=O)c2cccc(OCc3ccc(F)cc3)c2)nc1 [Compound 216i, N-(5-cyanopyridin-2-yl)-3-((4-fluorobenzyl)oxy)benzamide]
167 to 168 °C	67	N#Cc1ccc(NC(=O)c2cccc(OCc3ccc(C(F)(F)F)cc3)c2)cc1 [Compound 216j, N-(4-cyanophenyl)-3-((4-(trifluoromethyl)benzyl)oxy)benzamide]
209 to 210 °C	39	CS(=O)(=O)c1ccc(COc2cccc(C(=O)Nc3ccc(C#N)cc3)c2)cc1 [Compound 216k, N-(4-cyanophenyl)-3-((4-(methylsulfonyl)benzyl)oxy)benzamide]
138 to 139 °C	56	N#Cc1ccc(NC(=O)c2cccc(OCc3ccc(OC(F)(F)F)cc3)c2)cc1 [Compound 216m, N-(4-cyanophenyl)-3-((4-(trifluoromethoxy)benzyl)oxy)benzamide]
168 to 169 °C	34	N#Cc1ccc(NC(=O)c2cccc(OCc3ccc(Cl)cn3)c2)cc1 [Compound 216n, 3-((5-chloropyridin-2-yl)methoxy)-N-(4-cyanophenyl)benzamide]
205 to 207 °C	56	N#Cc1ccc(COc2cccc(C(=O)Nc3ccc(C#N)cc3)c2)cc1 [Compound 216q, 3-((4-cyanobenzyl)oxy)-N-(4-cyanophenyl)benzamide]
151 to 152 °C	69	C[C@@H](Oc1cncc(C(=O)Nc2ccc(C#N)cc2)c1)c1ccc(F)cc1 [Compound 216r, (R)—N-(4-cyanophenyl)-5-(1-(4-fluorophenyl)ethoxy)nicotinamide]
152 to 153 °C	27	C[C@H](Oc1cncc(C(=O)Nc2ccc(C#N)cc2)c1)c1ccc(F)cc1 [Compound 216s, (S)—N-(4-cyanophenyl)-5-(1-(4-fluorophenyl)ethoxy)nicotinamide]
266 to 268 °C (dec.)	0	N#Cc1ccc(COc2cncc(C(=O)Nc3ccc(C#N)cc3)c2)cc1 [Compound 216t, 5-((4-cyanobenzyl)oxy)-N-(4-cyanophenyl)nicotinamide]
